Assays:
Type in all cases: in vivo
[1] = test system: Stagonospora nodorum (also known as Septoria nodorum); test: Test B: preventive spray on wheat seedlings, Stagonospora nodorum (wheat glume blotch), visual disease rating; details: 100 = 100% disease control, 0 = no control, unmarked values
Procedure, shortened: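 Compounds in acetone/water (50/50) with 250 ppm Trem 014 surfactant were sprayed to run-off at 40 ppm (160 g ai/ha) or 10 ppm (40 g ai/ha). Seedlings were inoculated with S. nodorum spores the next day, then held 48 h saturated at 20 °C and 6 days in a growth chamber at 20 °C. Visual rating as % disease control vs untreated.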

[2] = test system: Botrytis cinerea; test: Test A: preventive spray on tomato seedlings, Botrytis cinerea (gray mold), visual disease rating; details: 100 = 100% disease control, 0 = no control relative to controls, unmarked values
Procedure, shortened: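 Tomato seedlings sprayed to run-off with 40 ppm or 10 ppm suspensions (160 or 40 g ai/ha) in acetone/water with 250 ppm surfactant. Inoculated with B. cinerea spores next day, held saturated at 20 °C for 48 h, then 27 °C for 2 days. Visual rating, 0–100% disease control relative to controls.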

[3] = test system: Puccinia recondite f. sp. tritici; test: Test D: preventive spray on wheat seedlings, Puccinia recondite f. sp. tritici (wheat leaf rust), visual disease rating; details: 100 = 100% disease control, 0 = no control, unmarked values
Procedure, shortened: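 Wheat seedlings sprayed to run-off with 40 ppm (160 g ai/ha) or 10 ppm (40 g ai/ha) suspension in acetone/water with 250 ppm surfactant, inoculated next day with leaf rust spores. After 24 h saturated at 20 °C then 6 days at 20 °C, visual rating of disease control (0–100) relative to controls.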

[4] = test system: Septoria tritici; test: Test C: preventive spray on wheat seedlings, Septoria tritici (wheat leaf blotch), visual disease rating; details: 100 = 100% disease control, 0 = no control, unmarked values
Procedure, shortened: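 Wheat seedlings sprayed to run-off at 40 ppm or 10 ppm (160 or 40 g ai/ha) in acetone/water with surfactant, inoculated with Septoria tritici spores next day. Held 48 h saturated at 24 °C, then 21 days at 20 °C. Visual rating scored as % disease control relative to controls.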

[5] = test system: Erysiphe graminis f. sp. tritici; test: Test E: preventive spray on wheat seedlings, Erysiphe graminis f. sp. tritici (wheat powdery mildew), visual disease rating; details: 100 = 100% disease control, 0 = no control, unmarked values
Procedure, shortened: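 Wheat seedlings were sprayed to run-off with 40 or 10 ppm suspension (160 or 40 g ai/ha) and dusted with spores the next day. They were then kept 8 days at 20 °C. Disease was rated visually as % control relative to untreated controls (0–100).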

Row | Compound | Test B disease control rating [1] [%] | Test A disease control rating [2] [%] | Test D disease control rating [3] [%] | Test C disease control rating [4] [%] | Test E disease control rating [5] [%]
1 | Cc1cc(-c2ccccc2NC(=O)c2cn(C)nc2C(F)F)cnc1-n1ccc(C(F)(F)F)n1 [compound 38] | 100 | 90 | 100 | 100 | 100
2 | O=C(Nc1ccccc1-c1ccc(-n2ccc(-c3ccccc3)n2)nc1)c1ncccc1C(F)(F)F [compound 39] | 0 | 45 | 92 | 92 | 89
3 | Cn1cc(C(=O)Nc2ccccc2-c2ccc(-n3ccc(-c4ccccc4)n3)nc2)c(C(F)F)n1 [compound 41] | 40 | 99 | 100 | 100 | 84
4 | O=C(Nc1ccccc1-c1ccc(-n2ccc(-c3ccccc3)n2)nc1)c1ccccc1C(F)(F)F [compound 42] | 0 | 40 | 68 | 87 | 21
5 | Cc1cnn(-c2ccc(-c3ccccc3NC(=O)c3ccccc3C(F)(F)F)cn2)c1 [compound 43] | 99 | 94 | 74 | 98 | 92
6 | Cc1cnn(-c2ccc(-c3ccccc3NC(=O)c3ccccc3C(F)(F)F)cn2)c1 [compound 44] | 0 | 40 | 99 | 62 | 0
7 | Cc1cnn(-c2ccc(-c3ccccc3NC(=O)c3cn(C)nc3C(F)F)cn2)c1 [compound 45] | 98 | 99 | 100 | 100 | 99
8 | Cc1cnn(-c2ccc(-c3ccccc3NC(=O)c3ncccc3Cl)cn2)c1 [compound 46] | 0 | 21 | 97 | 8 | 0
9 | O=C(Nc1ccccc1-c1ccc(-n2cc(Br)cn2)nc1)c1ncccc1Cl [compound 47] | 0 | 91 | 100 | 82 | 0
10 | COc1cc(C(F)(F)F)nn1-c1ccc(-c2ccccc2NC(=O)c2ncccc2C(F)(F)F)cn1 [compound 48] | 0 | 0 | 0 | 73 | 56
11 | Cc1cc(C)n(-c2ccc(-c3ccccc3NC(=O)c3ncccc3C(F)(F)F)cn2)n1 [compound 52] | 0 | 36 | 96 | 99 | 50
12 | O=C(Nc1ccccc1-c1ccc(-n2ccc(-c3ccccc3)n2)nc1)c1ncccc1Cl [compound 53] | 0 | 0 | 55 | 0 | 0
13 | O=C(Nc1ccccc1-c1cnc(-n2ccc(C(F)(F)F)n2)nc1)c1nccnc1Cl [compound 55] | 0 | 0 | 91 | 100 | 0
14 | O=C(Nc1ccccc1-c1ccc(-n2ccc(C(F)(F)F)n2)nn1)c1ccccc1C(F)(F)F [compound 57] | 0 | 0 | 100 | 32 | 0
15 | O=C(Nc1ccccc1-c1cnc(-n2cc(Cl)cn2)c(Cl)c1)c1ccccc1C(F)(F)F [compound 60] | 0 | 34 | 100 | 100 | 99
16 | Cn1cc(C(=O)Nc2ccccc2-c2cnc(-n3cc(Cl)cn3)c(Cl)c2)c(C(F)F)n1 [compound 62] | 0 | 84 | 100 | 100 | 98
17 | Cc1cc(-c2ccccc2NC(=O)c2ccccc2C(F)(F)F)cnc1-n1cc(Cl)cn1 [compound 63] | 0 | 27 | 99 | 92 | 72
18 | Cc1cc(-c2ccccc2NC(=O)c2ncccc2C(F)(F)F)cnc1-n1cc(Cl)cn1 [compound 64] | 60 | 98 | 100 | 100 | 96
19 | Cc1cc(-c2ccccc2NC(=O)c2cn(C)nc2C(F)F)cnc1-n1cc(Cl)cn1 [compound 65] | 97 | 99 | 100 | 100 | 94
20 | O=C(Nc1ccccc1-c1ccc(-n2cc(Cl)cn2)nc1)c1ccccc1C(F)(F)F [compound 66] | 0 | 32 | 89 | 18 | 0
21 | O=C(Nc1ccccc1-c1ccc(-n2cc(Cl)cn2)nc1)c1ncccc1Cl [compound 67] | 0 | 7 | 90 | 62 | 0
22 | O=C(Nc1ccccc1-c1cnc(-n2ccc(Cl)n2)c(F)c1)c1ncccc1C(F)(F)F [compound 69] | 100 | 99 | 100 | 100 | 100
23 | O=C(Nc1ccccc1-c1cnc(-n2cc(Cl)cn2)c(F)c1)c1ncccc1C(F)(F)F [compound 70] | 99 | 99 | 100 | 100 | 100
24 | O=C(Nc1ccccc1-c1cnc(-n2ccc(Br)n2)c(F)c1)c1ncccc1C(F)(F)F [compound 71] | 100 | 94 | 100 | 100 | 100

From US9730447B2, “Fungicidal amides” (E I DU PONT DE NEMOURS AND COMPANY, priority 2013, dated 2017)
